Patent US20070207119A1, “Histone deacetylase inhibitor enhancement of trail-induced apoptosis” (University of South Florida, priority 2002, published 2007)

Columns and labels:
Jurkat cells = assay: Apoptosis of Jurkat cells, annexin V staining and flow cytometry; format: cell-based, human
Procedure: (§1) FIG. 2 LAQ824 induces accumulation in the G1 phase of the cell cycle and apoptosis. SKW 6.4 (A) and Jurkat (B) cells were treated with the indicated concentration of LAQ824 for 24 hours. Following this, the cell cycle status and the percentage of apoptotic cells were determined by flow cytometry. Values represent mean±SE of 3 experiments. FIG. 8 Treatment LAQ824 enhances Apo-2L/TRAIL induced DISC assembly, DISC activity and apoptosis. A. SKW 6.4 and B. Jurkat cells were treated with LAQ824 and/or Apo-2L/TRAIL at the indicated doses for 24 hours. Following this, the percentage of apoptotic cells was determined by annexin-V staining followed by flow cytometry. Values represent mean±SE of 3 experiments. C. Following treatment of Jurkat cells with LAQ824 (20 nM) and/or Apo-2L/TRAIL (10 ng/ml) for 24 hours, either the total cell lysates were utilized for immunoblot analyses of caspase-8, BID, caspase-3 and PARP, or the cytosolic (S100) fractions of cells were either used for immunoblot analysis of cytochrome (cyt) c, Omi or Smac (D), β-Actin expression was used as the loading control. E. SKW 6.4 cells were treated with 100 nM LAQ824 for 24 hours or 100 ng/ml Apo-2L/TRAIL for 2 hours, or LAQ824 followed by Apo-2L/TRAIL. […]

DR5 mRNA = assay: Multi-probe RNase protection assay, DR5 mRNA; format: cell-based, human; conditions: SKW 6.4 and Jurkat cells, 100 nM LAQ824, 8 or 16 hours; densitometry, GAPDH mRNA as loading control
Procedure: (§2) FIG. 6 Treatment with LAQ824 increases the mRNA expression of DR4 and DR5, and increases the association of the DR5 gene with the acetylated histone H3 and H4 in chromatin. A. After exposure of SKW 6.4 and Jurkat cells to 100 nM LAQ824 for the indicated time intervals (hours), mRNA expression levels of the indicated genes were determined using a Riboquant Multi-Probe RNase Protection Assay. B. Soluble chromatin was immunoprecipitated with anti-acetylated histone H3 and H4 antibodies. PCR primers for the DR5 promoter were used to amplify the DNA isolated from the immunoprecipitates. PCR products were scanned and quantified. […] The ratio between input DNA and precipitated DNA was calculated for each treatment.
(§3) A RiboQuant Multi-Probe RNase Protection Assay System was used according to the manufacturer's instructions (BD/PharMingen, San Diego, Calif.), and as previously described. […] The remaining probes were resolved on 5% denaturing polyacrylamide gel and analyzed by autoradiography.
(§4) Next, the effect of LAQ824 on the mRNA levels of c-FLIPL, DR5, DR4 and Apo-2L/TRAI, utilizing a multi-probe RNAse protection assay and estimated by densitometry with GAPDH mRNA as the loading control was determined. […] In contrast to the increase in the DR5 and DR4 mRNA levels, exposure to LAQ824 for eight hours inhibited the mRNA level of c-FLIPL by 75%, as determined by an RT-PCR assay (FIG. 7A). […]

FAS mRNA = assay: Multi-probe RNase protection assay, FAS mRNA; format: cell-based, human; conditions: SKW 6.4 and Jurkat cells, 100 nM LAQ824, 8 or 16 hours; densitometry, GAPDH mRNA as loading control
Procedure: as §2, §3, §4

DR4 mRNA = assay: Multi-probe RNase protection assay, DR4 mRNA; format: cell-based, human; conditions: only in SKW 6.4 cells, 100 nM LAQ824, 8 or 16 hours
Procedure: as §2, §3, §4

DR5 = assay: Cell-membrane expression of DR5 in primary AML cells, anti-DR5 staining and flow cytometry; format: cell-based, human; conditions: primary AML sample, baseline 17.5%
Procedure: FIG. 11 LAQ824 induces histone acetylation, increases DR4 and DR5 levels, as well as down regulates FLIPS and FLIPL in primary AML cells. A. AML cells were treated with LAQ824 at the indicated concentrations for 24 hours. Following this histone protein were isolated, and the Histone H3 acetylation was detected by Western blot analysis using the anti-acetylated Histone H3 antibody. Total cell lysates of the untreated and LAQ824 treated cells were also used for immunoblot analyses of DR5, DR4, FLIPL and FLIPS. β-actin was used as the loading control. B. Bone marrow mononuclear cells from a patient with AML were exposed to 100 or 250 nM of LAQ824 for 24 hours. Following this, cell-membrane expression of DR5 was determined by staining with anti-DR5 antibody and evaluated by flow cytometry. Flow cytometric histograms in panels a to d are from cells treated with: a. Isotype control, b. untreated control cells, c. 100 nM LAQ824 and d. 250 nM LAQ824.
The sensitivity of fresh AML cells procured from patients with relapsed AML to Apo-2L/TRAIL and/or LAQ824-induced apoptosis was next to be determined. […] In every sample evaluated, co-treatment with LAQ824 and Apo-2L/TRAIL induced more apoptosis than treatment with either agent alone. […] Based on the availability adequate sample, we also determined the effect of LAQ824 on the determinants of Apo-2L/TRAIL-induced DISC.

SKW 6.4 cells = assay: Apoptosis of SKW 6.4 cells, annexin V staining and flow cytometry; format: cell-based, human; conditions: 10 to 200 nM LAQ824, 24 hours, less than in Jurkat
Procedure: as §1

[1] = tested on: HDAC activity in the HeLa cell nuclear extracts; conditions: LAQ824 5 to 250 nM, previously reported; cited from earlier work

O=C(/C=C/c1ccc(CN(CCO)CCc2c[nH]c3ccccc23)cc1)NO [LAQ824]
apoptosis, % of Jurkat cells (Jurkat cells; 100 or 200 nM LAQ824, 24 hours, data not shown): more than 90% | induction of apoptosis (annexin V positive) (Jurkat cells; Jurkat cells, 10 to 200 nM LAQ824, 24 hours, more than in SKW 6.4): induced apoptosis in a dose dependent manner | increase of mRNA expression of DR5 (DR5 mRNA): 2.4 fold | increase of mRNA expression of FAS (FAS mRNA): 1.5 fold | increase of DR4 mRNA levels (DR4 mRNA): 2.2 fold | DR5 expression on the cell membrane, % of cells (DR5; 100 nM LAQ824, 24 hours): 33.2% | DR5 expression on the cell membrane, % of cells (DR5; 250 nM LAQ824, 24 hours): 62.4% | induction of apoptosis (annexin V positive) (SKW 6.4 cells): induced apoptosis in a dose dependent manner | in vitro HDAC activity [1]: inhibits the in vitro HDAC activity in a dose dependent manner
